Test results reported in the NIST ThermoML archive (doi:10.1021/je0496140).
Numbers after ± are expanded uncertainties.

Assays:
[1] = xn = mol fraction of the nth substance listed; conditions: 101.33 kPa, Liquid
[2] = 101.33 kPa, Liquid

CCCCCl [1-chlorobutane] + CCCCO
[1]
Conditions	mass density [kg/m3]	viscosity [mPa·s]
288.15 K, x2 = 0.062	886.96 ± 0.37	–
288.15 K, x2 = 0.0949	–	0.509 ± 0.007
288.15 K, x2 = 0.1027	883.98 ± 0.37	–
288.15 K, x2 = 0.1383	881.38 ± 0.37	–
288.15 K, x2 = 0.1964	–	0.57 ± 0.008
288.15 K, x2 = 0.2032	876.67 ± 0.37	–
288.15 K, x2 = 0.2597	872.57 ± 0.37	–
288.15 K, x2 = 0.2859	870.67 ± 0.37	–
288.15 K, x2 = 0.2961	–	0.655 ± 0.009
288.15 K, x2 = 0.3764	864.06 ± 0.38	–
288.15 K, x2 = 0.3949	–	0.774 ± 0.01
288.15 K, x2 = 0.3967	862.58 ± 0.38	–
288.15 K, x2 = 0.4541	858.3 ± 0.38	–
288.15 K, x2 = 0.4822	856.17 ± 0.38	–
288.15 K, x2 = 0.4941	–	0.94 ± 0.012
288.15 K, x2 = 0.5076	854.25 ± 0.38	–
288.15 K, x2 = 0.5466	851.25 ± 0.39	–
288.15 K, x2 = 0.5818	848.53 ± 0.39	–
288.15 K, x2 = 0.5915	–	1.175 ± 0.014
288.15 K, x2 = 0.6332	844.49 ± 0.39	–
288.15 K, x2 = 0.6747	841.19 ± 0.39	–
288.15 K, x2 = 0.6954	–	1.503 ± 0.018
288.15 K, x2 = 0.7342	836.4 ± 0.4	–
288.15 K, x2 = 0.7698	833.49 ± 0.4	–
288.15 K, x2 = 0.794	–	1.934 ± 0.023
288.15 K, x2 = 0.8509	826.62 ± 0.41	–
288.15 K, x2 = 0.892	–	2.529 ± 0.029
288.15 K, x2 = 0.9022	822.13 ± 0.41	–
288.15 K, x2 = 0.9582	817.04 ± 0.42	–
298.15 K, x2 = 0.0949	–	0.452 ± 0.007
298.15 K, x2 = 0.1964	–	0.504 ± 0.007
298.15 K, x2 = 0.2961	–	0.57 ± 0.008
298.15 K, x2 = 0.3949	–	0.661 ± 0.009
298.15 K, x2 = 0.4941	–	0.788 ± 0.01
298.15 K, x2 = 0.5915	–	0.955 ± 0.012
298.15 K, x2 = 0.6954	–	1.204 ± 0.015
298.15 K, x2 = 0.794	–	1.525 ± 0.018
298.15 K, x2 = 0.892	–	1.955 ± 0.023
308.15 K, x2 = 0.0949	–	0.407 ± 0.006
308.15 K, x2 = 0.1056	861.88 ± 0.4	–
308.15 K, x2 = 0.1964	–	0.448 ± 0.006
308.15 K, x2 = 0.1979	855.62 ± 0.4	–
308.15 K, x2 = 0.2842	849.82 ± 0.4	–
308.15 K, x2 = 0.2961	–	0.501 ± 0.007
308.15 K, x2 = 0.3908	842.67 ± 0.4	–
308.15 K, x2 = 0.3949	–	0.576 ± 0.008
308.15 K, x2 = 0.4941	–	0.67 ± 0.009
308.15 K, x2 = 0.4964	835.5 ± 0.41	–
308.15 K, x2 = 0.5913	828.95 ± 0.41	–
308.15 K, x2 = 0.5915	–	0.797 ± 0.01
308.15 K, x2 = 0.6908	821.85 ± 0.42	–
308.15 K, x2 = 0.6954	–	0.984 ± 0.012
308.15 K, x2 = 0.7917	814.48 ± 0.43	–
308.15 K, x2 = 0.794	–	1.226 ± 0.015
308.15 K, x2 = 0.892	–	1.547 ± 0.018
308.15 K, x2 = 0.9003	806.19 ± 0.44	–
318.15 K, x2 = 0.0612	853.78 ± 0.41	–
318.15 K, x2 = 0.0913	851.66 ± 0.41	–
318.15 K, x2 = 0.0949	–	0.367 ± 0.006
318.15 K, x2 = 0.1849	845.48 ± 0.41	–
318.15 K, x2 = 0.1964	–	0.401 ± 0.006
318.15 K, x2 = 0.2759	839.66 ± 0.41	–
318.15 K, x2 = 0.2961	–	0.444 ± 0.006
318.15 K, x2 = 0.3836	832.82 ± 0.42	–
318.15 K, x2 = 0.3949	–	0.503 ± 0.007
318.15 K, x2 = 0.4858	826.26 ± 0.42	–
318.15 K, x2 = 0.4941	–	0.577 ± 0.008
318.15 K, x2 = 0.5859	819.71 ± 0.43	–
318.15 K, x2 = 0.5915	–	0.674 ± 0.009
318.15 K, x2 = 0.6868	812.99 ± 0.43	–
318.15 K, x2 = 0.6954	–	0.816 ± 0.01
318.15 K, x2 = 0.7868	806.09 ± 0.44	–
318.15 K, x2 = 0.794	–	0.993 ± 0.012
318.15 K, x2 = 0.8906	798.56 ± 0.45	–
318.15 K, x2 = 0.892	–	1.238 ± 0.015

CC(C)CO [2-methyl-1-propanol]
[2]
Conditions	mass density [kg/m3]	viscosity [mPa·s]
288.15 K	805.47 ± 0.48	4.805 ± 0.055
298.15 K	797.37 ± 0.49	3.435 ± 0.04
308.15 K	790.1 ± 0.5	2.508 ± 0.029
318.15 K	781.99 ± 0.51	1.87 ± 0.022

CC(C)(C)O [2-methylpropan-2-ol]
[2]
Conditions	mass density [kg/m3]	viscosity [mPa·s]
298.15 K	779.96 ± 0.51	4.433 ± 0.051
303.15 K	775.3 ± 0.52	3.355 ± 0.039
308.15 K	770.19 ± 0.53	2.611 ± 0.031
313.15 K	764.83 ± 0.54	2.074 ± 0.025
318.15 K	759.52 ± 0.54	1.685 ± 0.02

CCCCO [butan-1-ol]
[2]
Conditions	mass density [kg/m3]	viscosity [mPa·s]
288.15 K	813.42 ± 0.43	3.346 ± 0.038
298.15 K	805.4 ± 0.44	2.56 ± 0.029
308.15 K	798.14 ± 0.45	1.991 ± 0.023
318.15 K	790.19 ± 0.47	1.569 ± 0.019

CCC(C)O (centres undefined) [butan-2-ol]
[2]
Conditions	mass density [kg/m3]	viscosity [mPa·s]
288.15 K	810.72 ± 0.59	4.509 ± 0.055
298.15 K	801.82 ± 0.6	3.035 ± 0.038
308.15 K	794.07 ± 0.6	2.111 ± 0.027
318.15 K	785.15 ± 0.61	1.523 ± 0.02
